According to patent US20240398818A1, “Cardiosafe Antidiabetic Therapy” (priority 2018, published 2024):

Legend:
patients with T2D = settings: compared to placebo; cited from earlier work
[1] = test system: adult patients with early type 2 diabetes mellitus and increased CV risk or established complications; assay: Cardiovascular Safety Trial (linagliptin versus glimepiride); assay type: in vivo
Method: The effect of linagliptin on cardiovascular risk in adult patients with early type 2 diabetes mellitus and increased CV risk or established complications was evaluated in this Cardiovascular Safety Trial, a multi-center, multi-national, randomized, double-blind parallel group trial. The trial compared the risk of experiencing a major adverse cardiovascular event (MACE) between linagliptin and glimepiride when these were added to standard of care (including background therapy with metformin) based on regional standards for HbA1c and CV risk factors. The trial was event driven and patients were followed until at least 631 primary outcome events accrued.
A total of 6033 patients were treated (linagliptin 5 mg=3023; glimepiride 1 mg to 4 mg=3010) and followed for a median of 6.25 years (median time on treatment 5.9 years). Approximately 73% of the study population was Caucasian, 18% was Asian, and 5% was Black. The mean age was 64 years and 60% were male.
At baseline, disease characteristics were balanced. […] The trial population included 2030 (34%) patients ≥70 years of age, 2089 (35%) patients with cardiovascular disease, and 1130 (19%) patients with renal impairment with an eGFR <60 mL/min/1.73 m2 at baseline. Overall, the previous use of diabetes medications was balanced across treatment groups (metformin 83% continued as background therapy, sulfonylurea 28% discontinued prior to randomization), patients on insulin were excluded. The use of medications to reduce cardiovascular risk was also balanced (aspirin 47%, statins 65%, ACE inhibitors or ARBs 74%, beta blockers 39%, and calcium channel blockers 30%).
The primary endpoint in this Cardiovascular Safety Trial was the time to first occurrence of three point (3P) MACE. A major adverse cardiac event was defined as a cardiovascular death or a nonfatal myocardial infarction (MI) or a nonfatal stroke. The statistical analysis plan tested for non-inferiority for the occurrence of 3P MACE. The key secondary endpoint evaluated the composite of treatment sustainability defined as the proportion of patients on study treatment, that maintain glycemic control (HbA1c≤7.0%) without need for additional antidiabetic drug therapy (rescue medication), without any moderate (symptomatic with glucose value <70 mg/dL) or severe (requiring assistance) hypoglycemic episodes, and without >2% weight gain from baseline.
Cardiovascular Outcome Trial of Linagliptin Versus Glimepriride in Type 2 Diabetes—assessing long-term cardiovascular impact of linagliptin versus the sulphonylurea glimepiride in subjects with early type 2 diabetes and increased cardiovascular risk or established complications. […]
Type 2 diabetes patient with insufficient glycemic control (naïve or currently treated (mono or dual therapy) with e.g. metformin and/or an alpha-glucosidase inhibitor (e.g. having HbA1c 6.5-8.5%), or currently treated (mono or dual therapy) with e.g. a sulphonylurea or glinide, with or without metformin or an alpha-glucosidase inhibitor (e.g. having HbA1c 6.5-7.5%)) and increased or high risk of cardiovascular events, e.g. defined as one or more of risk factors A), B), C) and D) indicated below, are randomized* and treated over a lengthy period (e.g. up to 432 weeks) with linagliptin (5 mg, q.d., optionally in combination with one or more other active substances, e.g. such as added to existing antidiabetic background) and compared with patients treated with the sulphonylurea glimepiride (1-4 mg once daily). * Upon randomization, if a patient is on a SU or glinide, this secretagogue therapy is discontinued and replaced with study medication. For patients not on a secretagogue, study medication is added to the existing regimen.
Time to first occurrence of any of the following adjudicated components of the primary composite endpoint: […]

[2] = baseline to Final Visit, all observed cases
[3] = baseline to Final Visit, observed cases including values after rescue medication
[4] = both, human, in vivo, 5.9 years
[5] = both, human, in vivo, 6.25 years
[6] = component of secondary composite
[7] = from end of titration (16 weeks) to final visit
[8] = median follow-up 6.25 years, listed as glimepiride

## N[C@@H](CC(=O)N1CCn2c(nnc2C(F)(F)F)C1)Cc1cc(F)c(F)cc1F [sitagliptin]
Patients with T2D
  effect on major adverse CV event (MACE) outcomes (in words): neutral effect

## N#C[C@@H]1C[C@@H]2C[C@@H]2N1C(=O)[C@@H](N)C12CC3CC(CC(O)(C3)C1)C2 [saxagliptin]
Patients with T2D
  effect on major adverse CV event (MACE) outcomes (in words): neutral effect

## CCC1=C(C)CN(C(=O)NCCc2ccc(S(=O)(=O)NC(=O)N[C@H]3CC[C@H](C)CC3)cc2)C1=O [Glimepiride]
[1]; at Final Visit
  patients with macroalbuminuria (>300 mg/g): 1.4%
  patients with microalbuminuria (≥30 to ≤300 mg/g): 16.0%
[1]; at baseline and at Final Visit
  patients with normal UACR (<30 mg/g): 57.7%
[1]; [2]
  FPG, Change from baseline, adjusted mean: 19.7 mg/dL
  HBA1c, Change from baseline, adjusted mean: 0.15%
[1]; [3]
  Creatinine, Change from baseline, adjusted mean: 0.09 mg/dL
  HDL, Change from baseline, adjusted mean: 0.3 mg/dL
  LDL, Change from baseline, adjusted mean: -6.5 mg/dL
  Total cholesterol, Change from baseline, adjusted mean: -5.0 mg/dL
  Triglyceride, Change from baseline, adjusted mean: 5.2 mg/dL
  Urinary albumin, Change from baseline, adjusted mean: 45.2 mg/dL
[1]; between Visit 6 and Final Visit
  third key secondary endpoint of treatment sustainability (on medication, HbA1c≤7.0%, no rescue, no >2% weight gain), responders: 14.1%
[1]; both, human, in vivo
  Hospitalization for heart failure (HHF), Incidence Rate per 1000 PY: 5.3 per 1000 PY
  Hospitalization for heart failure (HHF), Number of Subjects: 92
  Patients with any moderate/severe hypoglycemic episodes, Number of Subjects: 791
  Patients with any moderate/severe hypoglycemic episodes, Subjects (%): 27.5%
  Secondary CV composite (4P-MACE), Incidence Rate per 1000 PY: 23.7 per 1000 PY
[1]; [4]
  rate of moderate or severe hypoglycemia: 30.9%
  severe hypoglycemia (requiring assistance): 2.2%
[1]; [5]
  Hospitalization for heart failure (HHF), Subjects (%): 3.1%
  Premature discontinuation from trial medication due to adverse events: 17.4%
  Primary CV composite (3P-MACE), Incidence Rate per 1000 PY: 21.2 per 1000 PY
  all-cause mortality, incidence rate per 1000 years at risk: 18.4 per 1000 years at risk
  any adjudicated event (secondary CV endpoint), % of patients: 17.8%
  hospitalisation for heart failure combined with CV death, incidence rate per 1000 years at risk: 13.4 per 1000 years at risk
  hospitalisation for heart failure, incidence rate per 1000 years at risk: 5.3 per 1000 years at risk
  investigator-reported heart failure AEs, % of patients: 5.2%
  investigator-reported heart failure AEs, incidence rate per 1000 years at risk: 9.0 per 1000 years at risk
  non-CV death, % of patients: 5.6%
  non-CV death, incidence rate per 1000 years at risk: 9.2 per 1000 years at risk
  proportion of patients with CV death contributing to the 3P-MACE: 4.2%
  proportion of patients with CV death contributing to the 4P-MACE: 4.1%
  proportion of patients with hospitalisation for unstable angina pectoris contributing to the 4P-MACE: 1.8%
  proportion of patients with non-fatal MI contributing to the 3P-MACE: 4.6%
  proportion of patients with non-fatal MI contributing to the 4P-MACE: 4.3%
  proportion of patients with non-fatal stroke contributing to the 3P-MACE: 3.4%
  proportion of patients with non-fatal stroke contributing to the 4P-MACE: 3.3%
[1]; [6]
  Patients with maintained glycemic control (HbA1c ≤7.0%), Number of Subjects: 554
  Patients with maintained glycemic control (HbA1c ≤7.0%), Subjects (%): 18.5%
  Patients with ≤2% weight gain, Number of Subjects: 699
  Patients with ≤2% weight gain, Subjects (%): 23.3%
[1]; [7]
  Secondary composite of treatment sustainability (on treatment, HbA1c ≤7.0%, no rescue, no moderate/severe hypoglycemic episodes, no >2% weight gain), Number of Subjects: 305
  Secondary composite of treatment sustainability (second key secondary endpoint), Subjects (%): 10.2%
[1]; in vivo
  first intake of rescue medication, incidence rate per 1000 years at risk: 115.5 per 1000 years at risk
  rate of patients who used rescue medication: 47.1%
[1]; median follow-up 6.25 years
  All-cause mortality, Incidence Rate per 1000 PY: 18.4 per 1000 PY
  All-cause mortality, Number of Subjects: 336
  All-cause mortality, Subjects (%): (11.2) %
  HHF or CV death, Incidence Rate per 1000 PY: 13.4 per 1000 PY
  HHF or CV death, Number of Subjects: 234
  HHF or CV death, Subjects (%): (7.8) %
  Secondary CV composite (cardiovascular death, non-fatal MI, non-fatal stroke and hospitalization for unstable angina; 4P-MACE), Number of Subjects: 401
[1]; median follow-up 6.25 years, added to standard of care
  Primary CV composite (cardiovascular death, non-fatal MI, non-fatal stroke; 3P-MACE), Number of Subjects: 362
[1]; [8]
  All-cause mortality, Subjects (%): 12.3%
  HHF or CV death, Subjects (%): 7.8%
[1]; over time
  weight change (in words): initial numerical weight increase

## Cn1c(=O)cc(N2CCC[C@@H](N)C2)n(Cc2ccccc2C#N)c1=O [alogliptin]
Patients with T2D
  effect on major adverse CV event (MACE) outcomes (in words): neutral effect
